Patent US3998843A (priority 1972, dated 1976)

Assays:
[1] = molecular target: T1, bovine erythrocyte acetylcholinesterase (Bos taurus, UniProt P23795); experiment: In vitro anticholinesterase test, method of Ellmann (acetylthiocholine substrate, Lineweaver-Burk, Ki); type: biochemical; details: for Ki: acetylthiocholine substrate, bovine erythrocyte acetylcholinesterase, competitive conditions; for antiacetylcholinesterase potency versus neostigmine: from Ki, in words
T1 construct: bovine erythrocyte acetylcholinesterase as enzyme; from tissue; host or cells: bovine erythrocytes
Procedure: In vitro testing of compounds was carried out by the method of Ellmann, Biochem. Pharmacol. 7, 88 (1961) with acetylthiocholine as substrate and bovine erythrocyte acetylcholinesterase as enzyme. Reaction rates were determined with and without inhibitor under competitive conditions (i.e. the substrate was added before the inhibitor). Results were plotted by the Lineweaver-Burk method and these plots were used to determine inhibitor constants (Ki values).

[2] = test system: tubocurarine-induced muscle blockade; experiment: Reversal of tubocurarine-induced muscle blockade in rats (anterior tibialis twitch); type: in vivo; details: iv; Rat; injected into the femoral vein; read-out: Dose necessary to produce maximum anti-curare effect
Text: (§1) D-Tubocurarine is used clinically to produce relaxation of skeletal muscles in patients undergoing certain surgical procedures. Following the completion of surgery antiacetylcholinesterases are used to reverse this relaxation. Experiments have been carried out to measure the ability of the compounds of the invention to reverse tubocurarine-induced muscle blockade in rats and cats.
(§2) The method was based on that of Zaimis E, J. Physiol 122, 238 (1953) in which animals were anaesthetised and the left hind limb clamped ridigly in a horizontal position with the tendon of the anterior tibialis muscle attached to a flat spring myograph. Twitches of the anterior tibialis muscle were induced by supramaximal electrical stimulation of the tibial nerve and recorded on a strip recorder. Drugs dissolved in 0.9% saline were injected into the femoral vein. During an experiment the dose of tubocurarine necessary to establish a partial (80 to 90%) blockade of neuromuscular transmission was established an anticholinisterase drugs were subsequently injected at the time of maximum blockade. Recovery achieved after the administration of an antiacetylcholinesterase was compared with the recovery after tubocurarine alone.

[3] = test system: neuromuscular effects of tubocurarine; details: in the clinic; cited from earlier work
[4] = test system: neuromuscular effects of tubocurarine; experiment: Reversal of tubocurarine neuromuscular effects in man (human volunteers; anterior compartment leg muscle twitch); type: in vivo; details: for recovery from tubocurarine block: I.V. in saline, 0.6 to 0.8 mg methobromide or 2.5 mg neostigmine (after 1.2 mg atropine)
Procedure: Substantiation for some of these estimates has come from the results of tests carried out in human volunteers. In these experiments contractions of the anterior compartment leg muscles were induced by supramaximal stimulation of the lateral popliteal nerve. After recording a period of control activity, tubocurarine was administered as a slow I.V. infusion until the muscle twitch height was reduced to approximately 50% of control levels. Three minutes later the anticholinesterase was administered (I.V. in saline) and the twitch height monitored until control levels were re-attained.

[5] = Intravenous LD50 in rats and therapeutic ratio; type: in vivo, rat; details: for LD50 / selectivity ratio: rat, in vivo, rats; for LD50: intravenous; for margin of safety when used in man: expected from the rat therapeutic ratios; for selectivity ratio: iv, ratio of LD50 to the dose giving maximum tubocurarine reversal
Text: The intravenous LD50 has been determined in rats for the three above mentioned drugs and from the results obtained the therapeutic ratios (defined as the ratio of LD50 to the dose giving maximum tubocurarine reversal) have been calculated: […]

[6] = test system: acetylcholinesterase; details: after dosage; as thought by some workers; cited from earlier work
[7] = test system: tubocurarine-induced muscle blockade; experiment: Reversal of tubocurarine-induced muscle blockade in cats (anterior tibialis twitch); type: in vivo; details: Felis catus, iv; Cat; injected into the femoral vein; read-out: Dose necessary to produce maximum anti-curare effect
Text: as §1, §2

[8] = test system: ability of acetylcholine to provoke red tears in rats; experiment: Rat chromodacryorrhoea test of Burgen; type: in vivo; details: for Potency, Rat chromod.: IP, relative to neostigmine (1.0); for in vivo potency versus neostigmine: rat chromodacryorrhoea, in words
Procedure: (§3) In vivo testing was carried out employing the mouse miosis test of Schneider R, J. Pharm. Pharmacol. 22, 298 (1970) in which antiacetylcholinesterases induce constriction of the pupil in the eye of the mouse, and the rat chromodacryorrhoea test of Burgen A.S.V.Brit.J.Pharmacol. 4; 185 (1949) in which antiacetylcholinesterases potentiate the ability of acetylcholine to provoke red tears in rats. Both tests enable the potency and duration of action of antiacetylcholinesterases to be assessed.

[9] = test system: constriction of the pupil in the eye of the mouse; experiment: Mouse miosis test of Schneider; type: in vivo; details: for Potency, Mouse Miosis: SC, relative to neostigmine (1.0); for in vivo potency versus neostigmine: mouse miosis, in words
Procedure: as §3

[10] = test system: muscarinic activity; experiment: Muscarinic activity in animal experimentation; type: in vivo
[11] = molecular target: T2, acetylcholinesterase (Homo sapiens, UniProt P22303); experiment: In vitro anticholinesterase activity, Michel method (acetylcholine substrate, washed human red cells as enzyme source); type: biochemical
T2 construct: washed human red cells as the source of acetylcholinesterase; from tissue; host or cells: washed human red cells
Procedure: Screening for anticholinesterase activity was carried out in vitro by the Michel method (J. Lab. Clin. Med 34, 1564, (1949)) using acetylcholine as substrate, washed human red cells as the source of acetylcholinesterase.

T1 sequence (P23795 other isoform, or with tags, fused parts or gaps): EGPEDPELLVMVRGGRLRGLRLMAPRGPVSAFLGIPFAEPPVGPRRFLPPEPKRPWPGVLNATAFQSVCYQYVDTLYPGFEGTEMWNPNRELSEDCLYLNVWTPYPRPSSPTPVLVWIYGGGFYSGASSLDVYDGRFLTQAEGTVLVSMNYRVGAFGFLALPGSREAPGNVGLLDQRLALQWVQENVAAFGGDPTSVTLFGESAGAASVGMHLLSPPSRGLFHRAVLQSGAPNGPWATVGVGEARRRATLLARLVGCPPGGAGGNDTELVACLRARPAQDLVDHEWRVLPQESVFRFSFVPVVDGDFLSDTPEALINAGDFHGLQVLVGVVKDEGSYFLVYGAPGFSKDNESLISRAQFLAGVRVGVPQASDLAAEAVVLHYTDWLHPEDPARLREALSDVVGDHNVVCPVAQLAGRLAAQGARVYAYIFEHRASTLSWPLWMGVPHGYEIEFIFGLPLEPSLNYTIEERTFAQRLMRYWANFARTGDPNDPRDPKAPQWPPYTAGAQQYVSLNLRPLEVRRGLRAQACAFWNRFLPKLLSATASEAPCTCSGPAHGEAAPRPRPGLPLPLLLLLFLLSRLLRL
T2 sequence (P22303 other isoform, or with tags, fused parts or gaps): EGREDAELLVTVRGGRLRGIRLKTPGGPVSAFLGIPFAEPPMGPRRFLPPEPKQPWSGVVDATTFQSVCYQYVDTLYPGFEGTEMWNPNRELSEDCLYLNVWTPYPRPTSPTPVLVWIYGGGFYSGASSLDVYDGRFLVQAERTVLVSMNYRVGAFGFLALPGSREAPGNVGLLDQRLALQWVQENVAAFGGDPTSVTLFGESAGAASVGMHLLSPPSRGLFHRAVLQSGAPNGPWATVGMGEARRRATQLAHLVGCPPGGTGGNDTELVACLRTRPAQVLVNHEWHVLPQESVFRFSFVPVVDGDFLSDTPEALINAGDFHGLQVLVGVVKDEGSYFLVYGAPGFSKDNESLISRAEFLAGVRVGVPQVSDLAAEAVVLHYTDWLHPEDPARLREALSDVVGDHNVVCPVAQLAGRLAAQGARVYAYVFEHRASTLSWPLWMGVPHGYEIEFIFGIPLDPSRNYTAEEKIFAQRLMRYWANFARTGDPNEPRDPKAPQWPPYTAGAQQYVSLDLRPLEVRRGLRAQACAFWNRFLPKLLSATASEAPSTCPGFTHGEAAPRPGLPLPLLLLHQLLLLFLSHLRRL

For CN(C)C(=O)Oc1cccc([N+](C)(C)C)c1 [Neostigmine, reference compound], the Ki [1] is given as 0.03 µM, the ED (maximum effect) [2] is given as 0.1 mg/kg and the “clinical intravenous dose to reverse the neuromuscular effects of tubocurarine” value [3] is given as 2.5 to 3.0 mg. For the same compound, the “recovery from tubocurarine block” value [4] was “Prompt recovery”, the LD50 [5] was 0.2 mg/kg and the “reversal of enzyme inhibition” value [6] was “relatively slow reversal”. For the same compound, the ED (maximum effect) [7] was 0.1 mg/kg.

For CC[N+](CC)(CCNC(=O)C(=O)NCC[N+](CC)(CC)Cc1ccccc1Cl)Cc1ccccc1Cl [Ambenonium, reference compound], the “Potency, Rat chromod.” value [8] was 0.03 and the “Potency, Mouse Miosis” value [9] was 0.06.

For C[N+]1([C@H]2CCCC[C@H]2c2cccc(O)c2)CCCC1 (stereo in doubt) [Example 11, cis-2-(3-hydroxyphenyl)-1-pyrrolidinocyclohexane methiodide], the “Potency, Rat chromod.” value [8] was 6.0, the “in vivo potency versus neostigmine” value [8] was “more potent than neostigmine” and the Ki [1] was 0.0073 µM. The “antiacetylcholinesterase potency versus neostigmine” value [1] was “more potent than neostigmine”, the ED (maximum effect) [2] was 0.025 mg/kg and the muscarinic activity [10] was “less muscarinic activity”. For the same compound, the IC50 [11] was 0.02 µM, the “Potency, Mouse Miosis” value [9] was 9.6 and the “in vivo potency versus neostigmine” value [9] was “more potent than neostigmine”. For the same compound, the “margin of safety when used in man” value [5] was “wide margin of safety”, the selectivity ratio [5] was 15 and the LD50 [5] was 0.18 mg/kg. The ED (maximum effect) [7] was 0.03 mg/kg.

C[N+]1([C@@H]2CCCC[C@@H]2c2cc(O)ccc2O)CCCC1 (relative stereo) [Example 16] showed an IC50 [11] of 0.01 µM.

In the case of C[N+]1([C@@H]2CCCC[C@@H]2c2cccc(O)c2)CCCC1 (stereo in doubt) [Example 2, cis-2-(3-Hydroxyphenyl)-1-pyrrolidinocyclohexane Methobromide], the “incidence of muscarinic effects” value ([4]; 0.6 to 0.8 mg I.V. versus 2.5 mg neostigmine with 1.2 mg atropine) is reported as “less than that produced by the neostigmine/atropine combination”, the “recovery from tubocurarine block” value [4] is reported as “Prompt recovery” and the IC50 [11] is reported as 0.02 µM.

With CC[N+](C)(C)c1cccc(O)c1 [Edrophonium, reference compound] the “Potency, Rat chromod.” value [8] was 0.09 and the “Potency, Mouse Miosis” value [9] was 0.04.

In the case of Cc1ccc([C@H]2CCCC[C@H]2[N+]2(C)CCCC2)cc1 (relative stereo) [Example 7], the IC50 [11] is reported as 1 µM.

Compound Cc1cccc([C@H]2CCCC[C@H]2[N+]2(C)CCCC2)c1 (relative stereo) [Example 8] has an IC50 [11] of 6 µM.

Compound C[N+]1([C@@H]2CCCC[C@@H]2c2ccc(Cl)cc2)CCCC1 (relative stereo) [Example 10] has an IC50 [11] of 0.2 µM.

For C[N+]1([C@@H]2CCCC[C@@H]2c2ccccc2)CCCC1 (relative stereo) [Example 1, cis-2-Phenyl-1-pyrrolidinocyclohexane Methiodide], the “Potency, Rat chromod.” value [8] was 2.0, the “in vivo potency versus neostigmine” value [8] was “more potent than neostigmine” and the Ki [1] was 0.0077 µM. For the same compound, the “antiacetylcholinesterase potency versus neostigmine” value [1] was “more potent than neostigmine”, the ED (maximum effect) [2] was 0.1 mg/kg and the muscarinic activity [10] was “less muscarinic activity”. The IC50 [11] was 0.2 µM, the “Potency, Mouse Miosis” value [9] was 1.6 and the “in vivo potency versus neostigmine” value [9] was “more potent than neostigmine”. The “margin of safety when used in man” value [5] was “wide margin of safety”, the selectivity ratio [5] was 7.2 and the LD50 [5] was 1.5 mg/kg. For the same compound, the ED (maximum effect) [7] was 0.1 mg/kg.

C[N+]1([C@@H]2CCC[C@@H]2c2cccc(O)c2)CCCC1 (relative stereo) [Example 14] showed an IC50 [11] of 0.1 µM.

In the case of CN(C)C(=O)Oc1ccc[n+](C)c1 [Pyridostigmine, reference compound], the Ki [1] is given as 4.8 µM and the “reversal of enzyme inhibition” value [6] is given as “relatively slow reversal”.

With C[N+]1([C@@H]2CCCC[C@H]2c2cccc(O)c2)CCCC1 (relative stereo) [trans-2-(3-hydroxyphenyl)-1-pyrrolidinocyclohexane methiodide, reference compound] the IC50 [11] was 100 µM and the “activity of cis compound relative to trans compound (fold as active)” value ([11]; Example 11 versus corresponding trans compound) was ~5000 ×.

In the case of CCCC(=O)Oc1cccc([C@@H]2CCCC[C@@H]2[N+]2(C)CCCC2)c1 (relative stereo) [Example 5, cis-2-(3-Butyryloxyphenyl)-1-pyrrolidinocyclohexane methiodide], the IC50 [11] is reported as 0.02 µM.

In the case of Nc1c2c(nc3ccccc13)CCCC2 [Tacrine, reference compound], the “Potency, Rat chromod.” value [8] is reported as 0.38 and the “Potency, Mouse Miosis” value [9] is reported as 0.21.
